Experimental data taken from ChEMBL document CHEMBL3745645, “Synthesis, in vitro antitumor activity, dihydrofolate reductase inhibition, DNA intercalation and structure-activity relationship studies of 1,3,5-triazine analogues” (Bioorg Med Chem Lett, 2016).
Calls of active or inactive are those of the source. No cut-off for these calls is given here.

How the values were obtained:
[1] = Cytotoxicity against human PC3 cells after 48 hrs by SRB assay; assay type: functional; details: PC-3, 48 h; for GI50 / TGI: pooled result: one value given for 2 cell lines, strains, targets or settings
[2] = Cytotoxicity against human OVCAR3 cells at 10 uM after 48 hrs by SRB assay; assay type: functional; details: OVCAR-3, 48 h, read-out: GI
SR [3] = assay: Cytotoxicity against human SR cells at 10 uM after 48 hrs by SRB assay; assay type: functional; details: read-out: GI
[4] = Cytotoxicity against human IGROV1 cells at 10 uM after 48 hrs by SRB assay; assay type: functional; details: IGROV-1, 48 h, read-out: GI
A549 [5] = assay: Cytotoxicity against human A549 cells at 10 uM after 48 hrs by SRB assay; assay type: functional; details: A549, 48 h, read-out: GI
[6] = Cytotoxicity against human RPMI8226 cells after 48 hrs by SRB assay; assay type: functional; details: RPMI-8226, 48 h, read-out: LC50 (the source's name)
786-0 [7] = assay: Cytotoxicity against human 786-0 cells after 48 hrs by SRB assay; assay type: functional; details: 786-0, 48 h, pooled result: one value given for 8 cell lines, strains, targets or settings
[8] = Cytotoxicity against human MOLT4 cells at 10 uM after 48 hrs by SRB assay; assay type: functional; details: MOLT-4, 48 h, read-out: GI
Calf thymus DNA [9] = assay: Binding affinity to calf thymus DNA by fluorescence spectrophotometric analysis; assay type: nucleic-acid assay; details: Bos taurus
MCF7 [10] = assay: Cytotoxicity against human MCF7 cells after 48 hrs by SRB assay; assay type: functional; details: MCF7, 48 h, pooled result: one value given for 6 cell lines, strains, targets or settings
[11] = Cytotoxicity against human COLO205 cells after 48 hrs by SRB assay; assay type: functional; details: COLO 205, 48 h, pooled result: one value given for 7 cell lines, strains, targets or settings
[12] = Cytotoxicity against human HCT116 cells at 10 uM after 48 hrs by SRB assay; assay type: functional; details: HCT-116, 48 h, read-out: GI
K562 = assay: Cytotoxicity against human K562 cells at 10 uM after 48 hrs by SRB assay; assay type: functional; details: K562, 48 h, read-out: GI
NCI-H460 = assay: Cytotoxicity against human NCI-H460 cells at 10 uM after 48 hrs by SRB assay; assay type: functional; details: NCI-H460, 48 h, read-out: GI
[13] = Cytotoxicity against human IGROV1 cells after 48 hrs by SRB assay; assay type: functional; details: IGROV-1, 48 h, pooled result: one value given for 7 cell lines, strains, targets or settings
T47D = assay: Cytotoxicity against human T47D cells at 10 uM after 48 hrs by SRB assay; assay type: functional; details: read-out: GI
SR [14] = assay: Cytotoxicity against human SR cells after 48 hrs by SRB assay; assay type: functional
NCI-H522 = assay: Cytotoxicity against human NCI-H522 cells at 10 uM after 48 hrs by SRB assay; assay type: functional; details: NCI-H522, 48 h, read-out: GI
KM12 = assay: Cytotoxicity against human KM12 cells at 10 uM after 48 hrs by SRB assay; assay type: functional; details: KM12, 48 h, read-out: GI
Dihydrofolate reductase = target: T1, Dihydrofolate reductase (Homo sapiens, UniProt P00374); assay: Inhibition of human recombinant DHFR expressed in Escherichia coli by spectrophotometric analysis
T1 sequence (P00374 whole entry): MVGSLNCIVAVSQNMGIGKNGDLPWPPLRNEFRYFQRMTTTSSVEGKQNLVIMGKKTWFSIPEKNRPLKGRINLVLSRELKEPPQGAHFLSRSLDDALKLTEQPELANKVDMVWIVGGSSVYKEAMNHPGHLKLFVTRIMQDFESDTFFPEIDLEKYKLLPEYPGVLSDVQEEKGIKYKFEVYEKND

Calf thymus DNA [15] = assay: Binding affinity to calf thymus DNA assessed as melting temperature by spectrophotometric analysis (reference value: 60 degC); assay type: nucleic-acid assay; details: Bos taurus
[16] = Cytotoxicity against human OVCAR5 cells at 10 uM after 48 hrs by SRB assay; assay type: functional; details: OVCAR-5, 48 h, read-out: GI
U-251 = assay: Cytotoxicity against human U251 cells at 10 uM after 48 hrs by SRB assay; assay type: functional; details: U-251, 48 h, read-out: GI
NCI-H226 = assay: Cytotoxicity against human NCI-H226 cells at 10 uM after 48 hrs by SRB assay; assay type: functional; details: NCI-H226, 48 h, read-out: GI
MCF7 [17] = assay: Cytotoxicity against human MCF7 cells at 10 uM after 48 hrs by SRB assay; assay type: functional; details: MCF7, 48 h, read-out: GI
ACHN = assay: Cytotoxicity against human ACHN cells at 10 uM after 48 hrs by SRB assay; assay type: functional; details: read-out: GI
[18] = Cytotoxicity against human SF539 cells at 10 uM after 48 hrs by SRB assay; assay type: functional; details: SF-539, 48 h, read-out: GI
MDA-MB-468 = assay: Cytotoxicity against human MDA-MB-468 cells at 10 uM after 48 hrs by SRB assay; assay type: functional; details: MDA-MB-468, 48 h, read-out: GI
MDA-MB-435 = assay: Cytotoxicity against human MDA-MB-435 cells at 10 uM after 48 hrs by SRB assay; assay type: functional; details: MDA-MB-435, 48 h, read-out: GI
Calf thymus DNA [19] = assay: Binding affinity to calf thymus DNA by UV-vis spectrometric analysis; assay type: nucleic-acid assay; details: Bos taurus
[20] = Cytotoxicity against human SNB19 cells at 10 uM after 48 hrs by SRB assay; assay type: functional; details: SNB-19, 48 h, read-out: GI
786-0 [21] = assay: Cytotoxicity against human 786-0 cells at 10 uM after 48 hrs by SRB assay; assay type: functional; details: 786-0, 48 h, read-out: GI
HT-29 = assay: Cytotoxicity against human HT-29 cells at 10 uM after 48 hrs by SRB assay; assay type: functional
[22] = Cytotoxicity against human RXF393 cells at 10 uM after 48 hrs by SRB assay; assay type: functional; details: RXF 393, 48 h, read-out: GI
[23] = Cytotoxicity against human HL-60(TB) cells after 48 hrs by SRB assay; assay type: functional; details: HL-60, 48 h, read-out: LC50 (the source's name)
NCI-H322M = assay: Cytotoxicity against human NCI-H322M cells at 10 uM after 48 hrs by SRB assay; assay type: functional; details: read-out: GI
Malme-3M = assay: Cytotoxicity against human MALME-3M cells at 10 uM after 48 hrs by SRB assay; assay type: functional
[24] = Cytotoxicity against human SNB75 cells at 10 uM after 48 hrs by SRB assay; assay type: functional; details: SNB-75, 48 h, read-out: GI
A549 [25] = assay: Cytotoxicity against human A549 cells after 48 hrs by SRB assay; assay type: functional; details: A549, 48 h, pooled result: one value given for 8 cell lines, strains, targets or settings
[26] = Cytotoxicity against human HOP92 cells at 10 uM after 48 hrs by SRB assay; assay type: functional; details: HOP-92, 48 h, read-out: GI

Cc1nc2ccc(Nc3nc(NCCN4CCOCC4)nc(Nc4ccc(F)cc4)n3)cc2n1Cc1ccccc1
LC50 [1]: 62.5 µM
GI50 [1]: 4.41 µM
TGI [1]: 43.9 µM
inhibition of growth at 10 µM [2]: 26.3%
inhibition of growth at 10 µM (SR [3]): 99.8%
inhibition of growth at 10 µM [4]: 31%
inhibition of growth at 10 µM (A549 [5]): 53.7%
CC50 [6]: 55 µM
GI50 (786-0 [7]): 3.03 µM
LC50 (concentration killing 50% of cells) (786-0 [7]): 14.6 µM
TGI (786-0 [7]): 19.3 µM
inhibition of growth at 10 µM [8]: 77.3%
Ka (Calf thymus DNA [9]): 8.58 ×10⁴ /M
GI50 (MCF7 [10]): 2.04 µM
LC50 (concentration killing 50% of cells) (MCF7 [10]): 20.6 µM
TGI (MCF7 [10]): 8.99 µM
GI50 [11]: 2.6 µM
LC50 [11]: 24 µM
TGI [11]: 8.51 µM
inhibition of growth at 10 µM [12]: 72.1%
inhibition of growth at 10 µM (K562): 97%
inhibition of growth at 10 µM (NCI-H460): 70.6%
GI50 [13]: 4.01 µM
LC50 (concentration killing 50% of cells) [13]: 62.3 µM
TGI [13]: 27.4 µM
inhibition of growth at 10 µM (T47D): 47%
LC50 (concentration killing 50% of cells) (SR [14]): 55 µM
inhibition of growth at 10 µM (NCI-H522): 41.3%
inhibition of growth at 10 µM (KM12): 56.6%
IC50 (Dihydrofolate reductase): 0.002 µM
Tm (Calf thymus DNA [15]): 80.1 °C
inhibition of growth at 10 µM [16]: 15.9%
inhibition of growth at 10 µM (U-251): 71.3%
inhibition of growth at 10 µM (NCI-H226): 27.9%
inhibition of growth at 10 µM (MCF7 [17]): 66.4%
inhibition of growth at 10 µM (ACHN): 47.8%
inhibition of growth at 10 µM [18]: 70.2%
inhibition of growth at 10 µM (MDA-MB-468): 86%
inhibition of growth at 10 µM (MDA-MB-435): 47.8%
Ka (Calf thymus DNA [19]): 7.19 ×10⁴ /M
inhibition of growth at 10 µM [20]: 21.3%
inhibition of growth at 10 µM (786-0 [21]): 95.8%
growth inhibition (GI) (HT-29): Active
inhibition of growth at 10 µM [22]: 88%
CC50 [23]: 55 µM
inhibition of growth at 10 µM (NCI-H322M): 35.9%
growth inhibition (GI) (Malme-3M): Active
inhibition of growth at 10 µM [24]: 49.4%
GI50 (A549 [25]): 3.21 µM
LC50 (A549 [25]): 38.5 µM
TGI (A549 [25]): 18.5 µM
inhibition of growth at 10 µM [26]: 69.7%

Cc1nc2cc(Nc3nc(Nc4ccc(F)cc4)nc(-c4cccs4)n3)ccc2n1Cc1ccccc1
LC50 [1]: > 100 µM
GI50 [1]: 5.2 µM
TGI [1]: 52.2 µM
inhibition of growth at 10 µM [2]: 33.3%
inhibition of growth at 10 µM (SR [3]): 82%
inhibition of growth at 10 µM [4]: 51.7%
inhibition of growth at 10 µM (A549 [5]): 56.9%
CC50 [6]: > 100 µM
GI50 (786-0 [7]): 4.54 µM
LC50 (concentration killing 50% of cells) (786-0 [7]): > 100 µM
TGI (786-0 [7]): 43.5 µM
inhibition of growth at 10 µM [8]: 76.5%
Ka (Calf thymus DNA [9]): 4.21 ×10⁴ /M
GI50 (MCF7 [10]): 5.24 µM
LC50 (concentration killing 50% of cells) (MCF7 [10]): 79.2 µM
TGI (MCF7 [10]): 21.9 µM
GI50 [11]: 3.23 µM
LC50 [11]: 25.3 µM
TGI [11]: 17 µM
inhibition of growth at 10 µM [12]: 75.8%
inhibition of growth at 10 µM (K562): 56.9%
inhibition of growth at 10 µM (NCI-H460): 60.4%
GI50 [13]: 8.83 µM
LC50 (concentration killing 50% of cells) [13]: 75.7 µM
TGI [13]: 27.3 µM
inhibition of growth at 10 µM (T47D): 76.7%
LC50 (concentration killing 50% of cells) (SR [14]): > 100 µM
inhibition of growth at 10 µM (NCI-H522): 46.5%
inhibition of growth at 10 µM (KM12): 74.8%
IC50 (Dihydrofolate reductase): 0.72 µM
Tm (Calf thymus DNA [15]): 68.5 °C
inhibition of growth at 10 µM [16]: 7.98%
inhibition of growth at 10 µM (NCI-H226): 35%
inhibition of growth at 10 µM (MCF7 [17]): 67.1%
inhibition of growth at 10 µM (ACHN): 54.4%
inhibition of growth at 10 µM [18]: 40.1%
inhibition of growth at 10 µM (MDA-MB-468): 66.8%
inhibition of growth at 10 µM (MDA-MB-435): 56.2%
Ka (Calf thymus DNA [19]): 3.19 ×10⁴ /M
inhibition of growth at 10 µM [20]: 33.3%
inhibition of growth at 10 µM (786-0 [21]): 62.5%
inhibition of growth at 10 µM (HT-29; HT-29, 48 h, read-out: GI): 79.5%
inhibition of growth at 10 µM [22]: 74.1%
CC50 [23]: > 100 µM
inhibition of growth at 10 µM (Malme-3M; read-out: GI): 22.4%
inhibition of growth at 10 µM [24]: 47.8%
GI50 (A549 [25]): 7.62 µM
LC50 (A549 [25]): 55.4 µM
TGI (A549 [25]): 33.1 µM
inhibition of growth at 10 µM [26]: 78%
